Data taken from patent US8017637B2, “Inhibitors of cdc phosphatases” (Ipsen Pharma S.A.S., priority 2004, dated 2011).

Key:
[1] = tested on: DU-145 lines (human prostate cancer cells); assay: Anti-proliferative activity, WST1 colorimetric test, DU145 cells; type: cell-based; details: 96 hours treatment, up to 10 μM, read-out: IC50 on the cell proliferation of the DU-145 lines
Protocol: (§1) ii) Characterization of Anti-Proliferative Activity:
(§2) By way of example, the effect of a treatment by the compounds of the examples described previously on two lines of human Mia-Paca2 and DU145 cells will be studied. The cell lines DU145 (human prostate cancer cells) and Mia-PaCa2 (human pancreatic cancer cells) were acquired from the American Tissue Culture Collection (Rockville, Md., USA). The cells placed in 80 μl of Dulbecco's Modified Eagle medium (Gibco-Brl, Cergy-Pontoise, France) completed with 10% foetal calf serum inactivated by heating (Gibco-Brl, Cergy-Pontoise, France), 50,000 units/l of penicillin and 50 mg/l streptomycin (Gibco-Brl, Cergy-Pontoise, France), and 2 mM of glutamine (Gibco-Brl, Cergy-Pontoise, France) were seeded on a 96-well plate on day 0. The cells were treated on day 1 for 96 hours at increasing concentrations of each of the compounds to be tested up to 10 μM. At the end of the of this period, quantification of the cell proliferation is evaluated by a colorimetric test based on the cleavage of the tetrazolium salt WST1 by the mitochondrial dehydrogenases in the viable cells leading to the formation of formazan (Boehringer Mannheim, Meylan, France). These tests are carried out in duplicate with 8 determinations per concentration tested. For each compound to be tested, the values included in the linear part of the sigmoid were retained for linear regression analysis and used in order to estimate the inhibitory concentration IC50. The products are solubilized in dimethylsulphoxide (DMSO) at to 10^−2M and finally used in culture with 0.1% DMSO.

[2] = biological target: T1, purified recombinant enzyme Cdc25-C (MBP-Cdc25C) (Homo sapiens, UniProt P30307); assay: Measurement of the phosphatase activity of the purified recombinant enzyme Cdc25C (OMFP dephosphorylation, fluorescence); type: biochemical; details: OMFP 500 μM, 4 hours at 30° C.
T1 construct: made in house
T1 sequence (P30307 1-473): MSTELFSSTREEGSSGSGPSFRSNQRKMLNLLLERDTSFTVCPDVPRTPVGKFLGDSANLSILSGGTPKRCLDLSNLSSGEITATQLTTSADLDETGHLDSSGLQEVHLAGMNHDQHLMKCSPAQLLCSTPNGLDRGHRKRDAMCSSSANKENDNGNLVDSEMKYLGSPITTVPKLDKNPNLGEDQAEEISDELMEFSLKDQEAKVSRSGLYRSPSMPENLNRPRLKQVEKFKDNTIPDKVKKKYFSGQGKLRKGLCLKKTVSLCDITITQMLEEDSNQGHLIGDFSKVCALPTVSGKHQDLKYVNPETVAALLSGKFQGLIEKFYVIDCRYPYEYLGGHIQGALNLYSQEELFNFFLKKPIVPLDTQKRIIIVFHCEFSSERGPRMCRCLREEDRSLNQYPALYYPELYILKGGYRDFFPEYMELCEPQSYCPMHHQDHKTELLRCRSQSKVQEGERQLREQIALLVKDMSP
Protocol: i) Measurement of the Phosphatase Activity of the Purified Recombinant Enzyme Cdc25C
The phosphatase activity of the protein MBP-Cdc25C is evaluated by the dephosphorylation of 3-O-methylfluorescein-phosphate (OMFP) to 3-O-methylfluorescein (OMF) with a determination of the fluorescence at 475 nm of the reaction product. This test makes it possible to identify inhibitors of the recombinant enzyme cdc25. The preparation of the fusion protein MBP-Cdc25C is described in the Patent Application PCT WO 01/44467.
The reaction is carried out in 384-well plate format at a final volume of 50 μl. The protein MBP-Cdc25C (prepared as described above) is preserved in the following elution buffer: 20 mM Tris-HCl pH 7.4; 250 mM NaCl; 1 mM EDTA; 1 mM of dithiothreitol (DTT); 10 mM maltose. It is diluted to a concentration of 60 μM in the following reaction buffer: 50 mM Tris-HCl pH 8.2; 50 mM NaCl; 1 mM DTT; 20% glycerol. Measurement of the background noise is carried out with the buffer without the addition of the enzyme. The products are tested at decreasing concentrations starting from 40 μM. The reaction is initiated by the addition of an OMFP solution at 500 μM final (prepared extemporaneously from a 12.5 mM stock solution in 100% DMSO (Sigma #M2629)). After 4 hours at 30° C. in a single-use 384-well plate, the fluorescence measured at OD 475 nm is read using a Victor^2 plate reader (EGG-Wallac). The determination of the concentration inhibiting the enzyme reaction by 50% is calculated from three independent experiments. Only the values contained in the linear part of the sigmoid are retained for linear regression analysis.

[3] = tested on: Mia-Paca2 lines (human pancreatic cancer cells); assay: Anti-proliferative activity, WST1 colorimetric test, Mia-Paca2 cells; type: cell-based; details: MIA PaCa-2, 96 hours treatment, up to 10 μM, read-out: IC50 on the cell proliferation of the Mia-Paca2 lines
Protocol: as §1, §2

SMILES	IC50 [1] [µM]	melting point [°C]	IC50 [2] [µM]	IC50 [3] [µM]
Cc1nc2c(s1)C(=O)C=C(NCCCN(C)CCCNC1=CC(=O)c3sc(C)nc3C1=O)C2=O [Example 1, 5.5′-[(methylimino)bis(propane-3,1-diylimino)]bis(2-methyl-1,3-benzothiazole-4,7-dione)]	≤ 10	94 to 96	≤ 1	≤ 10
Cc1nc2c(s1)C(=O)C=C(NCCN(C)CCNC1=CC(=O)c3sc(C)nc3C1=O)C2=O [Example 2, 5.5′-[(methylimino)bis(ethane-2,1-diylimino)]bis(2-methyl-1,3-benzothiazole-4,7-dione)]	≤ 10	188 to 190	≤ 1	≤ 10
Cc1nc2c(s1)C(=O)C=C(NCCOCCNC1=CC(=O)c3sc(C)nc3C1=O)C2=O [Example 3, 5.5′-[oxybis(ethane-2,1-diylimino)]bis(2-methyl-1,3-benzothiazole-4,7-dione)]	≤ 10		≤ 1	≤ 10
Cc1nc2c(s1)C(=O)C=C(NCCCCCNC1=CC(=O)c3sc(C)nc3C1=O)C2=O [Example 4]	≤ 10		≤ 1	≤ 10
Cc1nc2c(s1)C(=O)C(NCCCN(C)CCCNC1=CC(=O)c3nc(C)sc3C1=O)=CC2=O [Example 5, 6.6′-[(methylimino)bis(propane-3,1-diylimino)]bis(2-methyl-1,3-benzothiazole-4,7-dione)]	≤ 10	91 to 93	≤ 1	≤ 10
Cc1nc2c(s1)C(=O)C(NCCN(C)CCNC1=CC(=O)c3nc(C)sc3C1=O)=CC2=O [Example 6, 6.6′-[(methylimino)bis(ethane-2,1-diylimino)]bis(2-methyl-1,3-benzothiazole-4,7-dione)]	≤ 10		≤ 5	≤ 10
Cc1nc2c(s1)C(=O)C(Br)=C(NCCCN(C)CCCNC1=C(Br)C(=O)c3sc(C)nc3C1=O)C2=O [Example 17, 5.5′-[(methylimino)bis(propane-3,1-diylimino)]bis(6-bromo-2-methyl-1,3-benzothiazole-4,7-dione)]	≤ 10		≤ 1	≤ 10
CN(CCCN(C)C1=CC(=O)c2nc(-c3cc(F)ccc3F)oc2C1=O)CCCN(C)C1=CC(=O)c2nc(-c3cc(F)ccc3F)oc2C1=O [Example 23, 6.6′-{(methylimino)bis[propane-3,1-diyl(methylimino)]}bis[2-(2,5-difluorophenyl)-1,3-benzoxazole-4,7-dione]]			≤ 5	
CN(CCCNC1=CC(=O)c2sc(C(=O)N3CCN(C(=O)N4CCOCC4)CC3)nc2C1=O)CCCNC1=CC(=O)c2sc(C(=O)N3CCN(C(=O)N4CCOCC4)CC3)nc2C1=O [Example 27, 5.5′-[(methylimino)bis(propane-3,1-diylimino)]bis(2-{[4-(morpholin-4-ylcarbonyl)piperazin-1-yl]carbonyl}-1,3-benzothiazole-4,7-dione)]		157 to 158	≤ 1	≤ 10
CN(CCCNC1=CC(=O)c2sc(C(=O)N3CCN(C(=O)C4CCCO4)CC3)nc2C1=O)CCCNC1=CC(=O)c2sc(C(=O)N3CCN(C(=O)C4CCCO4)CC3)nc2C1=O (stereo not shown) [Example 28, 5.5′-[(methylimino)bis(propane-3,1-diylimino)]bis(2-{[4-(tetrahydrofuran-2-ylcarbonyl)piperazin-1-yl]carbonyl}-1,3-benzothiazole-4,7-dione)]		152 to 153	≤ 1	≤ 10
Cc1nc2c(s1)C(=O)C=C(NCCCN(C)CCCNC1=CC(=O)c3nc(C(=O)N4CCCC4)sc3C1=O)C2=O [Example 44, 5-({3-[(3-{[4,7-dioxo-2-(pyrrolidin-1-ylcarbonyl)-4,7-dihydro-1,3-benzothiazol-6-yl]amino}propyl)(methyl)amino]propyl}amino)-2-methyl-1,3-benzothiazole-4,7-dione]	≤ 10		≤ 1	≤ 10

The next lines start with the values.

IC50 [1] [µM]	melting point [°C]	IC50 [2] [µM]	IC50 [3] [µM]	SMILES
≤ 10		≤ 1	≤ 10	COc1ccc(CNC(=O)c2nc3c(s2)C(=O)C=C(NCCCN(C)CCCNC2=CC(=O)c4sc(C)nc4C2=O)C3=O)cc1 [Example 45, N-(4-methoxybenzyl)-5-{[3-(methyl{3-[(2-methyl-4,7-dioxo-4,7-dihydro-1,3-benzothiazol-5-yl)amino]propyl}amino)propyl]amino}-4,7-dioxo-4,7-dihydro-1,3-benzothiazole-2-carboxamide]
		≤ 1		COc1ccc2c(c1)CCCN2C(=O)c1nc2c(s1)C(=O)C=C(NCCCN(C)CCCNC1=CC(=O)c3sc(C)nc3C1=O)C2=O [Example 47, 2-[(6-methoxy-3,4-dihydroquinolin-1(2H)-yl)carbonyl]-5-{[3-(methyl{3-[(2-methyl-4,7-dioxo-4,7-dihydro-1,3-benzothiazol-5-yl)amino]propyl}amino)propyl]amino}-1,3-benzothiazole-4,7-dione]
≤ 10		≤ 1	≤ 10	COc1ccc(C(=O)N2CCN(C(=O)c3nc4c(s3)C(=O)C=C(NCCCN(C)CCCNC3=CC(=O)c5sc(C)nc5C3=O)C4=O)CC2)cc1 [Example 48, 2-{[4-(4-methoxybenzoyl)piperazin-1-yl]carbonyl}-5-{[3-(methyl{3-[(2-methyl-4,7-dioxo-4,7-dihydro-1,3-benzothiazol-5-yl)amino]propyl}amino)propyl]amino}-1,3-benzothiazole-4,7-dione]
≤ 10		≤ 1	≤ 10	Cc1nc2c(s1)C(=O)C=C(NCCCN(C)CCCNC1=CC(=O)c3scnc3C1=O)C2=O [Example 50, 5-({3-[{3-[(4,7-dioxo-4,7-dihydro-1,3-benzothiazol-5-yl)amino]propyl}(methyl)amino]propyl}amino)-2-methyl-1,3-benzothiazole-4,7-dione]
		≤ 1	≤ 10	Cc1nc2c(s1)C(=O)C=C(NCCCN(C)CCCNC1=CC(=O)c3nc(-c4cc(F)ccc4F)oc3C1=O)C2=O [Example 51, 2-(2,5-difluorophenyl)-6-{[3-(methyl{3-[(2-methyl-4,7-dioxo-4,7-dihydro-1,3-benzothiazol-5-yl)amino]propyl}amino)propyl]amino}-1,3-benzoxazole-4,7-dione]
≤ 10		≤ 1	≤ 10	Cc1nc2c(s1)C(=O)C(NCCCN(C)CCCNC1=CC(=O)c3nc(-c4cc(F)ccc4F)oc3C1=O)=CC2=O [Example 53, 2-(2,5-difluorophenyl)-6-{[3-(methyl{3-[(2-methyl-4,7-dioxo-4,7-dihydro-1,3-benzothiazol-6-yl)amino]propyl}amino)propyl]amino}-1,3-benzoxazole-4,7-dione]
